According to patent US20250051391A1, “PEPTIDE INHIBITORS AND METHODS FOR INHIBITING PROTEIN AGGREGATION IN NEURONS AND NEURODEGENERATIVE DISEASES” (THE GOVERNING COUNCIL OF THE UNIVERSITY OF TORONTO, priority 2021, published 2025):
Ends that are not written are not given here.

Experiments:
[1] = tested on: a-syn oligomers in HEK293 cells; assay: Oligomers screen (split YFP-a-syn protein fragment complementation, FACS); assay type: cell-based, human
Excerpt: To detect a-syn oligomers, a protein fragment complementation assay (PCA) of a-syn oligomerization in HEK293 cells (14) was used. In this assay, human A53T a-syn was fused to either the C- or N-terminal half of yellow fluorescent protein (YFP). No fluorescence is detectable while a-syn exists in monomers but, when a-syn oligomerizes, the two halves of YFP come in close enough proximity to form a functional, spontaneously fluorescent protein. […] By using fluorescence activated cell sorting (FACS), cells expressing Flag-tagged peptides that directly or indirectly interfered with a-syn oligomer formation were isolated and then the peptides were identified from genomic DNA (FIG. 1A). The screens yielded 10 hits (Table 1). The hit with the most reads (i.e., the most abundant) was the same peptide in all screens: IPIQLKA (SEQ ID NO: 1) (PDpep1) (Table 2). […] Lead peptide targets CHMP2B, a member of ESCRT-III
PCR primers that included the Illumina adaptor sequences were used to amplify peptide coding sequences recovered from selection and cell sorting. Results were demultiplexed, and peptide counts were tallied. After demultiplexing, only reads with an average quality Phred score of >30 were selected, and frequencies were calculated. Finally, the reads were then normalized to the total number of peptides read for that sample population, and a scalar factor was applied. In parallel, ˜25 individual colonies were Sanger sequenced to compare to the NGS data.
Lentiviruses were made in a 15 cm dish format by transfecting packaging cells (293T) with a three-plasmid system as previously described. Viral transduction of HEK293T cells, tet-off split luciferase a-syn cells, tet-off parent cells, and SH-SY5Y cells were performed with a multiplicity of infection of 0.3 (MOI=0.3). Infected cells were selected in puromycin-containing medium to eliminate uninfected cells and three aliquots of cells were collected for sampling of the initial (TO) cell population. Cells were treated with MG132 at concentrations of 0 μM, 10 μM, 25 μM or 50 μM. For the cell viability screen, surviving cells were collected and gDNA was extracted for identification of peptide inhibitors of cell toxicity. For the inhibition of a-syn aggregation screen, split YFP-a-syn constructs were transfected following stable expression of the peptides. Cells were sorted based on their GFP fluorescence intensities with a FACSVantage SE cell sorter (BD Bioscience).
Cells were harvested by trypsin treatment and centrifuged at 500×g for 5 minutes. The pellet was resuspended in ice-cold PBS and centrifuged again. The pellet was then resuspended at a concentration of 4×10^6 cells/ml in the sorting buffer, which is PBS containing 100 Kunitz Dnase l/ml, 10 μg/ml propidium iodide (Sigma) and 2% FBS. The sorting solution was also supplemented with either 10 μM forskolin, 100 μM 5,6-Dichlorobenzimidazole riboside (DRB, Sigma), 10 μM forskolin (Sigma) and 100 μM DRB or DMSO, as a control. The cells were then sent through a 40 μm filter to remove large clumps and loaded into either a FACScan Flow Cytometer (BD Bioscience) for cell analysis or a FACSVantage SE cell sorter (BD Bioscience) for cell sorting. The cells with positive propidium iodide staining (i.e., dead cells) were first eliminated from the analysis or sorting pool. For cell sorting, the desired population, either the most or least bright EGFP-positive cells, according to the purpose of the experiments (see Results), was sorted into either 15 ml conical tubes or 96-well plates, which both contained complete DMEM culture media.
Genomic DNA (gDNA) from peptide expressing cells at different time-points was extracted using QIAamp DNA Blood Mini Kit. PCR amplifications of peptides from gDNA in parallel with the lentiviral plasmid library (naïve library) were performed using indexed Illumina PCR primers to incorporate both the Illumina adapter sequences and indexing sequences. […]

HEK293 cells = assay: LAMP1 and CD63 levels in HEK293 cells co-transfected with A53T a-syn and peptide; assay type: cell-based, human
Protocol: Infected or transfected cells were scraped from 6-well dishes and lysed with lysis buffer (50 mM Tris-HCl pH7.4, 1% Nonidet P-40, 150 mM NaCl, 1 mM EDTA, 1× protease inhibitor mixture (Sigma)) for 30 min at 4° C. The insoluble pellet was removed following a 10,000 rpm spin for 5 minutes at 4° C. Lysates were analyzed by SDS-PAGE/immunoblot using 4-20% Mini-PROTEAN Tris-glycine gels (Bio-Rad) transferred to PVDF membranes and blocked in 5% milk containing PBS-Tween-20 (0.1%) for 1 h. PVDF membranes were then incubated with specified primary antibodies followed by incubation with horseradish peroxidase-conjugated secondary antibodies (Santa Cruz Biotechnology) and detected using enhanced chemiluminescence (GE Healthcare).
After fixation, cells were permeabilized with 0.2% Triton X-100 for 15 min, washed 3 times with PBS and then incubated with blocking solution (1% BSA, 22.52 mg/mL glycine, 0.1% Tween-20 in PBS) for 1 h. Primary antibodies were diluted in blocking solution and incubated overnight at 4° C. Following three washes with PBS, cells were next incubated with fluorescent secondary antibodies diluted in blocking solution for 1 h at room temperature. Following another 3 PBS washes, nuclei were counterstained with DAPI (ThermoFisher) and then coverslips were mounted on slides using fluorescence mounting medium (DAKO) and sealed using clear nail varnish.

Substance	Reads Ratio [1]	Reads GFP High ([1]; FACS fraction GFP High)	Reads GFP Inter ([1]; FACS fraction GFP Inter)	Reads GFP Neg ([1]; FACS fraction GFP Neg)	CD63 levels (MVB marker) (HEK293 cells; HEK293 cells expressing A53T a-syn)	LAMP1 levels (HEK293 cells; HEK293 cells overexpressing A53T a-syn)
IPIQLKA [PDpep1, top hit of all screens; maps to CHMP2B residues 203-209]	1,218.98	12	2853	15556	–	–
DEEIERQLKALG [PDpep1.3]	–	–	–	–	return of CD63	restored
